The source of these data is publication PMC6835155, “Lessons from LIMK1 enzymology and their impact on inhibitor design” (Biochemical Journal, 2019).

One assay has as its target T1, LIMK1KD (Homo sapiens, UniProt P53667).
T1 construct: His6 (N, cleaved yes); made in house; host or cells: baculovirus; Sf9 for virus, TriEx insect cells for expression
Nature of the assay: Differential (dynamic) scanning fluorimetry (DSF) assay, LIMK1KD. Format: binding. The note with it: 2 µM LIMK1KD, compound 10 µM, single shot; for ΔTm at 10 µM: read-out: TM Shift LIMK1 (K).

A further assay addresses T2, LIMK2KD (Homo sapiens, UniProt P53671).
T2 construct: The cDNA coding for LIMK2 residues 330 to 632 was PCR amplified; His6 (N, cleaved yes); made in house; host or cells: baculovirus; Sf9 for virus, TriEx insect cells for expression
In words: Differential (dynamic) scanning fluorimetry (DSF) assay, LIMK2KD. It counts as binding. The note with it: LIMK2KD, compound 10 µM, single shot; for ΔTm at 10 µM: read-out: TM Shift LIMK2 (K).

Where a name gives a salt, the structure may show the parent alone.

T2 sequence (P53671 330-632): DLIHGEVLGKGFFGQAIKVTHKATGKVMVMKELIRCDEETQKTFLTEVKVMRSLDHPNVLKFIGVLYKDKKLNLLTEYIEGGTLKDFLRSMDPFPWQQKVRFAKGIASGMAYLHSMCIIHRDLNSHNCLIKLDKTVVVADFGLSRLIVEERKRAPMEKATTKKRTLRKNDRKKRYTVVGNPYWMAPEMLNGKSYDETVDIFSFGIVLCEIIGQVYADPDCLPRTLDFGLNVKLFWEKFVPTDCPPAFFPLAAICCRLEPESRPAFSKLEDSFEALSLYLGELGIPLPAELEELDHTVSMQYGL
T1 sequence (P53667 330-637): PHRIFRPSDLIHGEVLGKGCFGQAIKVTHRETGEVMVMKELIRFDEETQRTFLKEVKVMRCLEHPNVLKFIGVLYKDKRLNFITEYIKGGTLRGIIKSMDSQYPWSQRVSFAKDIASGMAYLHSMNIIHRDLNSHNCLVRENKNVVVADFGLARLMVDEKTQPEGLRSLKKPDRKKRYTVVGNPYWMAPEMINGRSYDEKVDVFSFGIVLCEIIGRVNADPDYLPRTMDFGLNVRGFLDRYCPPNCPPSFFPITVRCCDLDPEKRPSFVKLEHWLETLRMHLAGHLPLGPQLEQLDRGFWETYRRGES

On to `Cc1cnc(Nc2ccc(N3CCN(C)CC3)cc2)nc1Nc1cccc(S(=O)(=O)NC(C)(C)C)c1` [TG101209], for which the “TM Shift LIMK1 (K)” value on LIMK1KD is 2.4 K. The “TM Shift LIMK2 (K)” value at LIMK2KD is 3.1 K.
As for `Cc1cnc(Nc2ccc(OCCN3CCCC3)cc2)nc1Nc1cccc(S(=O)(=O)NC(C)(C)C)c1` [TG101348 (SAR302503)], the “TM Shift LIMK1 (K)” value at LIMK1KD is reported as 2.0 K. Also, the “TM Shift LIMK2 (K)” value at LIMK2KD (10 µM) is 0.7 K.
In the case of `Cc1cc(C(C)Nc2ccccc2)c2nc(N3CCOCC3)cc(=O)n2c1` (stereo not drawn) [TGX-221], the “TM Shift LIMK1 (K)” value on LIMK1KD was determined as 0.1 K. Besides, the “TM Shift LIMK2 (K)” value at LIMK2KD is 0.0 K.
Taken in the same sequence, the figures for `Cc1ccccc1CN1C(=O)C2=C(CCN(Cc3ccccc3)C2)N2CCN=C12` [TIC10] were 0.5 K and -1.2 K.
The like results for `NC(=O)Nc1sc(-c2ccc(F)cc2)cc1C(N)=O` [TPCA-1] were, in that order, 2.8 K and 3.6 K.
The like results for `Nc1cccc(-c2cc3c(Oc4cccc(O)c4)ncnc3[nH]2)c1` [TWS119] were, in that order, 5.2 K and 4.1 K.
Turning to `COc1cc(Nc2ncc(F)c(Nc3ccc4c(n3)NC(=O)C(C)(C)O4)n2)cc(OC)c1OC` [Tamatinib], the ΔTm at 10 µM is 5.5 °C on LIMK1KD and 3 °C on LIMK2KD.
On to `COc1cc2c(N3CCN(C(=O)Nc4ccc(OC(C)C)cc4)CC3)ncnc2cc1OCCCN1CCCCC1` [Tandutinib (MLN518), Tandutinib], for which the ΔTm at 10 µM is 0.8 °C on LIMK1KD and 0 °C at LIMK2KD.
Taken in the same sequence, the figures for `CNC(=O)c1cc(COc2nnc(Nc3ccc(Cl)cc3)c3ccoc23)ccn1` [Telatinib] were -1.4 °C and 3.3 °C.
The like results for `CO[C@H]1C[C@@H]2CC[C@@H](C)[C@@](O)(O2)C(=O)C(=O)N2CCCC[C@H]2C(=O)O[C@H]([C@H](C)C[C@@H]2CC[C@@H](OC(=O)C(C)(CO)CO)[C@H](OC)C2)CC(=O)[C@H](C)/C=C(\C)[C@@H](O)[C@@H](OC)C(=O)[C@H](C)C[C@H](C)/C=C/C=C/C=C/1C` [Temsirolimus (CCI-779, NSC 683864), Temsirolimus] were, in that order, -0.7 °C and 0 °C.
For `O=C(NCc1ccccc1)c1csc(Nc2ccncn2)n1` [Thiazovivin], at LIMK1KD, the “TM Shift LIMK1 (K)” value is listed as 1.1 K. In addition, the “TM Shift LIMK2 (K)” value on LIMK2KD is listed as 1.0 K.
For the compound `O=c1sn(-c2cccc3ccccc23)c(=O)n1Cc1ccccc1` [Tideglusib], the ΔTm at 10 µM at LIMK1KD was -0.5 °C; on LIMK2KD, 3.9 °C.
For the compound `COc1ccc2cc(-c3nc(-c4ccc([S+](C)[O-])cc4)[nH]c3-c3ccncc3)ccc2c1` (stereo not drawn) [Tie2 kinase inhibitor], on LIMK1KD, the “TM Shift LIMK1 (K)” value was 1.3 K. Moreover, the “TM Shift LIMK2 (K)” value at LIMK2KD was 1.4 K.
For `O=C1NC(=O)[C@@H](c2cn3c4c(cccc24)CCC3)[C@@H]1c1c[nH]c2ccccc12` [Tivantinib], the ΔTm at 10 µM at LIMK1KD was 0 °C; at LIMK2KD it was 0.6 °C.
With `COc1cc2nccc(Oc3ccc(NC(=O)Nc4cc(C)on4)c(Cl)c3)c2cc1OC` [Tivozanib (AV-951), Tivozanib], the ΔTm at 10 µM at LIMK1KD came out at 1.1 °C; on LIMK2KD, 1.5 °C.
The like results for `C[C@@H]1CCN(C(=O)CC#N)C[C@@H]1N(C)c1ncnc2[nH]ccc12` [Tofacitinib (CP-690550) Citrate, Tofacitinib] were, in that order, -0.4 °C and 3.1 °C.
Taken in the same sequence, the figures for `CCC(=O)N1CCN(c2ccc(-n3c(=O)ccc4cnc5ccc(-c6cnc7ccccc7c6)cc5c43)cc2C(F)(F)F)CC1` [Torin 1] were -0.2 °C and 3.1 °C.
As for `Nc1ccc(-c2ccc3ncc4ccc(=O)n(-c5cccc(C(F)(F)F)c5)c4c3c2)cn1` [Torin 2], at LIMK1KD, the “TM Shift LIMK1 (K)” value is -1.1 K. For the same compound, on LIMK2KD, the “TM Shift LIMK2 (K)” value was -0.7 K.
As for `CC(=O)Nc1cccc(-n2c(=O)n(C3CC3)c(=O)c3c(Nc4ccc(I)cc4F)n(C)c(=O)c(C)c32)c1` [Trametinib (GSK1120212), Trametinib], the ΔTm at 10 µM on LIMK1KD is -0.2 °C; at LIMK2KD it was 0 °C.
With `CC(C)(C)c1cc(C=C(C#N)C#N)cc(C(C)(C)C)c1O` [Tyrphostin 9], the “TM Shift LIMK1 (K)” value at LIMK1KD was found to be 3.5 K. Besides, the “TM Shift LIMK2 (K)” value at LIMK2KD was 6.3 K.
Regarding `CC(C)(C)c1cc(/C=C(\C#N)C(N)=S)cc(C(C)(C)C)c1O` [Tyrphostin AG 879], the ΔTm at 10 µM on LIMK1KD was determined as 0.1 °C; on LIMK2KD, 1.2 °C.
With `COc1cc2ncc(-c3ccccc3)nc2cc1OC` [Tyrphostin AG 1296], the “TM Shift LIMK1 (K)” value on LIMK1KD was determined as 0.0 K. Moreover, the “TM Shift LIMK2 (K)” value on LIMK2KD is reported as -1.3 K.
For `CCO.N#CC(=C(/N)Sc1ccccc1N)/C(C#N)=C(\N)Sc1ccccc1N` [U0126-EtOH], at LIMK1KD, the “TM Shift LIMK1 (K)” value is given as -1.1 K. In addition, the “TM Shift LIMK2 (K)” value on LIMK2KD was 2.4 K.
The like results for `CN[C@@H]1C[C@H]2O[C@@](C)([C@@H]1OC)n1c3ccccc3c3c4c(c5c6ccccc6n2c5c31)C(=O)N[C@H]4O` [UCN-01] were, in that order, 1.2 K and 0.7 K.
Regarding `CS(=O)(=O)c1ccc(-c2cnc(N)c(C(=O)Nc3ccccc3)n2)cc1` [VE-821], the ΔTm at 10 µM came to 0.8 °C on LIMK1KD and 1.5 °C at LIMK2KD.
The like results for `CNCc1ccc(-c2cc(-c3nc(-c4ccc(S(=O)(=O)C(C)C)cc4)cnc3N)on2)cc1` [VE-822] were, in that order, -0.5 °C and 0.5 °C.
For `Cc1cnc(Nc2ccc(F)cc2Cl)nc1-c1c[nH]c(C(=O)N[C@H](CO)c2cccc(Cl)c2)c1` [VX-11E], the “TM Shift LIMK1 (K)” value at LIMK1KD worked out at 0.0 K. Further, on LIMK2KD, the “TM Shift LIMK2 (K)” value is given as -1.6 K.
Turning to `Cc1cc(Nc2cc(N3CCN(C)CC3)nc(Sc3ccc(NC(=O)C4CC4)cc3)n2)[nH]n1` [VX-680 (Tozasertib, MK-0457), Tozasertib], the results for the ΔTm at 10 µM on LIMK1KD and at LIMK2KD were 3.4 °C and 0 °C, respectively.
For the compound `NC(=O)c1ccc(N(C(N)=O)c2c(F)cccc2F)nc1-c1ccc(F)cc1F` [VX-702], the ΔTm at 10 µM at LIMK1KD is 0.6 °C; at LIMK2KD it was -0.6 °C.
Taken in the same sequence, the figures for `O=c1ncn2nc(Sc3ccc(F)cc3F)ccc2c1-c1c(Cl)cccc1Cl` [VX-745] were 0.6 °C and 1.3 °C.
For the compound `COc1cc2c(Nc3ccc(Br)cc3F)ncnc2cc1OCC1CCN(C)CC1` [Vandetanib (ZD6474), Vandetanib], the ΔTm at 10 µM at LIMK1KD and at LIMK2KD was 0.1 °C each time.
In the case of `C[C@@H]1COC(Nc2ccc3ncnc(Nc4ccc(OCc5nccs5)c(Cl)c4)c3c2)=N1` [Varlitinib], the ΔTm at 10 µM at LIMK1KD was 0.9 °C; at LIMK2KD, 0.8 °C.
Consider `Clc1ccc(Nc2nnc(Cc3ccncc3)c3ccccc23)cc1` [Vatalanib (PTK787) 2HCl, Vatalanib], for which the values for the ΔTm at 10 µM at LIMK1KD and on LIMK2KD were -0.5 °C and -0.3 °C, respectively.
Taken in the same sequence, the figures for `CCCS(=O)(=O)Nc1ccc(F)c(C(=O)c2c[nH]c3ncc(-c4ccc(Cl)cc4)cc23)c1F` [Vemurafenib (PLX4032, RG7204), Vemurafenib] were 1.5 °C and 6 °C.
Taken in the same sequence, the figures for `CC[C@@H]1C(=O)N(C)c2cnc(Nc3ccc(C(=O)N[C@H]4CC[C@H](N5CCN(CC6CC6)CC5)CC4)cc3OC)nc2N1C(C)C` [Volasertib (BI 6727), Volasertib] were 0.5 °C and 0.3 °C.
As for `CCn1c(=O)c(-c2cc[nH]n2)cc2c(C)nc(N)nc21` [Voxtalisib], the “TM Shift LIMK1 (K)” value at LIMK1KD stood at 0.2 K. Also, on LIMK2KD (10 µM), the “TM Shift LIMK2 (K)” value amounted to 0.4 K.
As for `c1cncc(CN2CCC(n3ncc4c(N5CCOCC5)nc(-c5ccc6[nH]ccc6c5)nc43)CC2)c1` [WAY-600], the “TM Shift LIMK1 (K)” value on LIMK1KD is -0.1 K. Moreover, the “TM Shift LIMK2 (K)” value at LIMK2KD is on record as -0.2 K.
The like results for `COc1cc2ncnc(Nc3ccc(O)c(Br)c3)c2cc1OC` [WHI-P154] were, in that order, 1.5 K and -0.2 K.
Take `C[C@H](NC(=O)/C(C#N)=C/c1cccc(Br)n1)c1ccccc1` [WP1066]: the ΔTm at 10 µM at LIMK1KD is -0.3 °C; on LIMK2KD, 0.4 °C.
Turning to `CNC(=O)Nc1ccc(-c2nc(N3CC4CCC(C3)O4)c3cnn(C4CCC5(CC4)OCCO5)c3n2)cc1` [WYE-125132 (WYE-132)], the “TM Shift LIMK1 (K)” value on LIMK1KD is on record as 0.5 K. Besides, the “TM Shift LIMK2 (K)” value at LIMK2KD stood at 0.9 K.
Taken in the same sequence, the figures for `C=CC(=O)Nc1cccc(Oc2nc(Nc3ccc(N4CCN(C)CC4)cc3)ncc2Cl)c1` [WZ3146] were 1.9 K and 1.5 K.
Take `C=CC(=O)Nc1cccc(Oc2nc(Nc3ccc(N4CCN(C)CC4)cc3OC)ncc2Cl)c1` [WZ4002]: the ΔTm at 10 µM on LIMK1KD came out at 1 °C; on LIMK2KD it was 1.8 °C.
Taken in the same sequence, the figures for `CCC(=O)Nc1cccc(Oc2nc(Nc3ccc(N4CCN(C)CC4)cc3OC)ncc2Cl)c1` [WZ4003] were 0.4 °C and -0.8 °C.
Regarding `C=CC(=O)Nc1cccc(Sc2nc(Nc3ccc(N4CCN(C)CC4)cc3)ncc2Cl)c1` [WZ8040], at LIMK1KD, the “TM Shift LIMK1 (K)” value was 3.1 K. In addition, the “TM Shift LIMK2 (K)” value on LIMK2KD came to 5.2 K.
As to `COC[C@H]1OC(=O)c2coc3c2[C@@]1(C)C1=C(C3=O)[C@@H]2CCC(=O)[C@@]2(C)C[C@H]1OC(C)=O` [Wortmannin], the ΔTm at 10 µM on LIMK1KD amounted to 0.2 °C; on LIMK2KD, 0.1 °C.
The like results for `O=C(Nc1ccc(-c2ccnc(Nc3ccc(N4CCOCC4)cc3)n2)cc1)C1CCCN1` (stereo not drawn) [XL019] were, in that order, 4 °C and 1.6 °C.
In the case of `COc1ccc(Cl)c(Nc2nc3ccccc3nc2NS(=O)(=O)c2cccc(NC(=O)C(C)(C)N)c2)c1` [XL147], the “TM Shift LIMK1 (K)” value at LIMK1KD is listed as -0.1 K. Besides, on LIMK2KD (10 µM), the “TM Shift LIMK2 (K)” value was determined as 0.6 K.
As for `Cc1c(C(=O)N2CCOc3ccc(-c4ccc(N)nc4)cc3C2)ccc(S(C)(=O)=O)c1F` [XL388], at LIMK1KD, the “TM Shift LIMK1 (K)” value is on record as -1.4 K. Moreover, the “TM Shift LIMK2 (K)” value on LIMK2KD is 2.7 K.
